From paper PMC4823997 (Journal of medicinal chemistry, 2015) come the findings set out here.

Like-named read-outs stand apart in the source and are kept apart here. Some results are limits rather than exact numbers.

For one data set, the target named is T1, CCR4 (Homo sapiens, UniProt P51679).
T1 sequence (P51679 1-360): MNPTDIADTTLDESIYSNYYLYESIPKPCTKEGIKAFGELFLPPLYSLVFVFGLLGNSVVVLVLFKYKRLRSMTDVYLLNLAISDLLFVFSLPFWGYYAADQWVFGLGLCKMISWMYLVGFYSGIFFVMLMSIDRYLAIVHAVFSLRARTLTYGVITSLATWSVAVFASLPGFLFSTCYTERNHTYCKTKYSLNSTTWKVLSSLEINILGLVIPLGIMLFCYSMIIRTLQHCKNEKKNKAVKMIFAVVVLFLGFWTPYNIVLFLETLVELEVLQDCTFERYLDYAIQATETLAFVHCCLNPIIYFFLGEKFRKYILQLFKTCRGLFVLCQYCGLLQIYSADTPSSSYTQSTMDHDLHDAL
Description: CCR4 radioligand binding assay. Particulars: for selective index CCR4: selectivity for CXCR4 binding versus CCR4.

Data set [1] has as its system CCRF-CEM cells that express endogenous human CXCR4. Particulars: read-out: IC50 to block SDF-1α-induced CEM migration, 10 nM SDF-1, 2.5 h.
Another data set deals with TZM-bl cells. In words: Cytotoxicity assay. The class given is cell-based.
The subject of the next data set is HIV-1. Particulars: 0 to 20 nM.
The next data set addresses CXCR7 (Homo sapiens, UniProt P25106). The class given is cell-based.
The target in another data set is CCR2 (Homo sapiens, UniProt P41597). In words: CCR2 radioligand binding assay. Particulars: for selective index CCR2: selectivity for CXCR4 binding versus CCR2.
The test system of a further data set is CEM cells. In words: Cytotoxicity assay. The class given is cell-based, human.
Another data set concerns the target hCXCR4 (Homo sapiens, UniProt P61073). In words: Radioligand [125I]SDF-1α binding to hCXCR4-transfected HEK293 membrane.
The test system of another data set is HIV-1 IIIB. In words: Luciferase activity assay of HIV-1 infectivity in TZM-bl cells. The class given is cell-based. Particulars: read-out: Anti-HIV EC50; TZM-bl cells, HIV-1 IIIB, M.O.I. 1.
The target of a further data set is T2, CXCR2 (Homo sapiens, UniProt P25025).
T2 sequence (P25025 1-360): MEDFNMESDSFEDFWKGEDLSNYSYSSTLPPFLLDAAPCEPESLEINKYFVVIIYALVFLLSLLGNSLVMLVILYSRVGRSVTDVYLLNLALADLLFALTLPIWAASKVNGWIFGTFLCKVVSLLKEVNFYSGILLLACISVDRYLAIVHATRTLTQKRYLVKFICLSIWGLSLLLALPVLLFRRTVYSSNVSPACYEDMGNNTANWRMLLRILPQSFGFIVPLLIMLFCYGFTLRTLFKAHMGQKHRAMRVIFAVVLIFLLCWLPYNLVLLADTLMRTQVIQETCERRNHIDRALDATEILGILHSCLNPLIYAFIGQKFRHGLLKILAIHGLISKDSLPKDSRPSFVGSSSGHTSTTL
Description: CXCR2 radioligand binding assay. The conditions noted are these: for selective index CXCR2: selectivity for CXCR4 binding versus CXCR2.

In another data set the target is CCR5 (Homo sapiens, UniProt P51681). Description: CCR5 radioligand binding assay. The conditions noted are these: for selective index CCR5: selectivity for CXCR4 binding versus CCR5.
Data set [2] is described as follows: Cytotoxicity assay. The class given is cell-based. Particulars: human, TZM-bl cells.
A short description of data set [3]: Cytotoxicity assay. It counts as cell-based, human. Particulars: human, CEM cells (T-lymphoblast leukemia).

hCXCR4, sequence (P61073 whole entry): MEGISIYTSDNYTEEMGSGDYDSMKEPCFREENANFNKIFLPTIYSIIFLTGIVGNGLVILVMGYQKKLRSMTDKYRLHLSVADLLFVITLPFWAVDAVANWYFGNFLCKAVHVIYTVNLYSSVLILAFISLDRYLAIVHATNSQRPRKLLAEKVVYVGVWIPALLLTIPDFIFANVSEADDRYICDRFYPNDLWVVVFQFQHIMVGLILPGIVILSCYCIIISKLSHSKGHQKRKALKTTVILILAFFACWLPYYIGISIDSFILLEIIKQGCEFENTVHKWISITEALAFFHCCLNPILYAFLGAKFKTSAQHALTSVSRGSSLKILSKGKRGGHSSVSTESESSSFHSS
CCR2, sequence (P41597 whole entry, species assumed): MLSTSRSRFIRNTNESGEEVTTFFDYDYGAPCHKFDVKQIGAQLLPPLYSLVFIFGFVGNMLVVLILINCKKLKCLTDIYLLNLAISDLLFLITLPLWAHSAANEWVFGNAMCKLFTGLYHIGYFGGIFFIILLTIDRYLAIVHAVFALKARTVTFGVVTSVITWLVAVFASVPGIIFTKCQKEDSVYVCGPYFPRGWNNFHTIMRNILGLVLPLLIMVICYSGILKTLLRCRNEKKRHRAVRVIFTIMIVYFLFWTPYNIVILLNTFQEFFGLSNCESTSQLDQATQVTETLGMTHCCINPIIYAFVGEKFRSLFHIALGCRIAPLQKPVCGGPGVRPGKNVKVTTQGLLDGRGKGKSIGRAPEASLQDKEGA
CCR5, sequence (P51681 whole entry, species assumed): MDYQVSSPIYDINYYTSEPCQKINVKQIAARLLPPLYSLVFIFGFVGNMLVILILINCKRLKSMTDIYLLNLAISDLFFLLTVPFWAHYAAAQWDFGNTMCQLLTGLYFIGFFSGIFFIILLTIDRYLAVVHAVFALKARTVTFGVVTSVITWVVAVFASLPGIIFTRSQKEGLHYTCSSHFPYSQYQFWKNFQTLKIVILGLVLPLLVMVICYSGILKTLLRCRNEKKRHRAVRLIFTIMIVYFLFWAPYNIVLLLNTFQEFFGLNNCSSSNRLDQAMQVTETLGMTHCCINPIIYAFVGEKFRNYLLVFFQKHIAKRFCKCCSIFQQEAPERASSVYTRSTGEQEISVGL
CXCR7, sequence (P25106 whole entry): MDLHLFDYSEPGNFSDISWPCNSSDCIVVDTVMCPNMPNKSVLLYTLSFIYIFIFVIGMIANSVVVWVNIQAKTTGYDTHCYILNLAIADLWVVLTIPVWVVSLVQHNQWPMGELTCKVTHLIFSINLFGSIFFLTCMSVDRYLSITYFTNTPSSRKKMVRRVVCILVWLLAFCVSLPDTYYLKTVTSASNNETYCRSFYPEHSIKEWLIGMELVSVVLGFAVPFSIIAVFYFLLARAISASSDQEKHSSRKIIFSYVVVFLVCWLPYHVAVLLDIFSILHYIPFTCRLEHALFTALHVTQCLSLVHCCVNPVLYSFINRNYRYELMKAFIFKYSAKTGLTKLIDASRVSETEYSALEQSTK

For the compound `c1nc2c(NCc3ccc(CCNCCCNC4CCCCC4)cc3)nc(N3CCNCC3)nc2[nH]1` [Compound 24, N-Cyclohexyl-N′-(2-{4-[(2-piperazin-1-yl-9H-purin-6-ylami-no)-methyl]-phenyl}-ethyl)-propane-1,3-diamine], the “inhibition (%) CCR4” value at CCR4 (at 10 μM) is 11%. For the same compound, the IC50 at CCR4 (read-out: IC50 CCR4) is over 10 µM; in data set [1] it was 0.0031 µM; on CCR2 (read-out: IC50 CCR2), over 10 µM; at CXCR2 (read-out: IC50 CXCR2), over 10 µM; at CCR5 (read-out: IC50 CCR5), over 10 µM. The “selective index CCR4” value at CCR4 is recorded as over 609. The “Selective Index CC50/EC50 TZM-bl” value in the data set on TZM-bl cells (CC50 (TZM-bl) / anti-HIV EC50) is on record as over 98039. Further, the CC50 in the data set with TZM-bl cells (read-out: Cytotoxicity CC50 TZM-bl, TZM-bl cells, 72 h) is over 50 µM; with CEM cells (read-out: Cytotoxicity CC50 CEM, CEM cells, 72 h), over 50 µM. The “anti-HIV activity, time of addition” value is reported as “significantly reduced” in the data set on HIV-1 (added 3 h after HIV-1 infection) and “maintained its potent anti-HIV activity” in the data set on HIV-1 (added 3 h before or simultaneously with HIV-1 infection). Further, the “functional selectivity over CXCR4-dependent HIV entry inhibition” value at CXCR7 (CXCR7 β-arrestin assay versus HIV entry inhibition) is given as over 1960 fold. Besides, the “antagonism of SDF-1α binding to CXCR7 or triggering of β-arrestin recruitment” value on CXCR7 (even at a 40-fold higher SDF-1α concentration) was “did not antagonize”. In addition, the “inhibition (%) CCR2” value on CCR2 (at 10 μM) amounted to 10%. Further, the “selective index CCR2” value on CCR2 is on record as over 609. The “Selective Index CC50/EC50 CEM” value in the data set on CEM cells (CC50 (CEM) / anti-HIV EC50) is listed as over 98039. In addition, the “inhibition (%) CXCR4” value on hCXCR4 (at 10 μM) is recorded as 100%. Also, the “fold increase in CXCR4 binding affinity compared to AMD3100” value at hCXCR4 (relative to AMD3100) is given as 13 fold. Further, the “fold increase in CXCR4 binding affinity compared to compound 4” value on hCXCR4 (relative to compound 4) was determined as 2.2 fold. Moreover, in the data set with HIV-1 IIIB, the EC50 is 0.00051 ± 2e-05 µM. Further, the “inhibition (%) CXCR2” value at CXCR2 (at 10 μM) is recorded as 16%. Further, the “selective index CXCR2” value at CXCR2 is on record as over 609. For the same compound, the “inhibition (%) CCR5” value on CCR5 (at 10 μM) came to 15%. Moreover, at CCR5, the “selective index CCR5” value was over 609.

Turning to `c1cc(CNCCCNC2CCCCC2)cc(CNc2nc(N3CCNCC3)nc3[nH]cnc23)c1` [Compound 25, N-Cyclohexyl-N′-{3-[(2-piperazin-1-yl-9H-purin-6-ylamino)-methyl]-benzyl}-propane-1,3-diamine], the IC50 at CCR4, at CCR2, at CXCR2 and on CCR5 was over 10 µM in each case. Also, the inhibition at 10 µM at CCR4 (read-out: inhibition (%) CCR4) is 0%; at CCR2 (read-out: inhibition (%) CCR2), 2%; on hCXCR4 (read-out: inhibition (%) CXCR4), 100%; on CXCR2 (read-out: inhibition (%) CXCR2), 12%; at CCR5 (read-out: inhibition (%) CCR5), 14%. For the same compound, at CCR4, the “selective index CCR4” value is on record as over 2380. Also, the CC50 at 72 h in the data set “Cytotoxicity assay [2]” and in “Cytotoxicity assay [3]” was over 50 µM each time. Further, the selectivity ratio at 72 h in the data set “Cytotoxicity assay [2]” and in the data set “Cytotoxicity assay [3]” was over 83300 throughout. At CCR2, the “selective index CCR2” value is recorded as over 2380. In addition, the “fold increase in CXCR4 binding affinity compared to compound 24” value at hCXCR4 (relative to compound 24) is on record as 4 fold. The EC50 in the data set with HIV-1 IIIB is 0.00061 ± 0.00027 µM. In addition, the “selective index CXCR2” value at CXCR2 was over 2380. Further, the “selective index CCR5” value on CCR5 was over 2380.
